For twelve molecules, IC50 results are on record in patent US12527779B2, “Prostaglandin E2 (PGE2) EP4 receptor antagonists” (Domain Therapeutics, priority 2019, dated 2026).

Structures can show the parent of a compound that is named as a salt.

A word on the IC50: it is the midpoint of a concentration-inhibition curve. A lower IC50 goes with higher potency.

For the experiment, the target named is T1, human EP4 (hEP4) receptor (Homo sapiens, UniProt P35408).
T1 construct: expressed in transfected cells; host or cells: HEK-293 T cells, transient co-transfection with polyethylenimine
T1 sequence (P35408 whole entry): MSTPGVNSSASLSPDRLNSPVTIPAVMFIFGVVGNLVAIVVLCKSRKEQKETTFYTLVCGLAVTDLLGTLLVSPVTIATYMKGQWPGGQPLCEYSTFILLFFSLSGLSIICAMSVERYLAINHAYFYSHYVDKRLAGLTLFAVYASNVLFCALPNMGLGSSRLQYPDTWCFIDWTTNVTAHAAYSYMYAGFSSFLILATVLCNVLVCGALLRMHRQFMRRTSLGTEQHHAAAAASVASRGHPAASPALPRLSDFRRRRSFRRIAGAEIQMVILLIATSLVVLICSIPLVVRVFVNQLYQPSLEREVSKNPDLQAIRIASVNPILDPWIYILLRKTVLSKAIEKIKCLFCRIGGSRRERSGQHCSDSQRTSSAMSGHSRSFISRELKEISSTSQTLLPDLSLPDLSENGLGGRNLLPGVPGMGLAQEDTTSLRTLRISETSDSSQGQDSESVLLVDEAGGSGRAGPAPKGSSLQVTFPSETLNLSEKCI
The experiment can be described thus: In vitro human EP4 functional antagonist activity using BRET biosensors (cAMP EPAC biosensor, TCS2510 stimulation). The format is cell-based. To be noted: antagonist activity vs EC60 TCS2510, hEP4 in HEK-293 T cells. In outline: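 HEK-293T cells transiently co-transfected with hEP4 and EPAC cAMP BRET biosensor (luciferase/GFP), assayed 48 h later in HEPES-buffered saline after 1 h at 22 °C. After 5 min with compound, cells stimulated with EC60 TCS2510 and BRET read for 10 min; IC50 from 10-point, 4.5-log variable-slope fits, duplicate, two experiments.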
(In general: BRET reads energy transfer from a luciferase to a nearby fluorophore.)
On to `C[C@H](NC(=O)C1(c2ccc(OCc3ccccc3)cc2)CCOCC1)c1ccc(C(=O)O)cc1` [Example 88, 4-[(1S)-1-[[4-(4-Benzyloxyphenyl)tetrahydropyran-4-carbonyl]amino]ethyl]benzoic acid], for which the IC50 is below 1000 nM.

`Cc1cc(C2(NC(=O)C3(N4CC[C@@H](Oc5cccc(C(F)(F)F)c5)C4)CCOCC3)CC2)ccc1C(=O)O` [Example 198, (R)-2-Methyl-4-(1-(4-(3-(3-(trifluoromethyl)phenoxy)pyrrolidin-1-yl)tetrahydro-2H-pyran-4-carboxamido)cyclopropyl)benzoic acid, hydrochloride] had a half-inhibitory concentration (IC50) below 100 nM.

In the case of `CN(CCOc1ccccc1)C1(C(=O)NC2(c3ccc(C(=O)O)cc3Cl)CC2)CCOCC1` [Example 52, 3-Chloro-4-[1-[[4-[methyl(2-phenoxyethyl)amino]tetrahydropyran-4-carbonyl]amino]cyclopropyl]benzoic acid, hydrochloride], the IC50 is below 100 nM.

The molecule `C[C@H](NC(=O)C1(NCCCc2ccccc2)CCOCC1)c1ccc(C(=O)O)cc1` [Example 18, 4-[(1S)-1-[[4-(3-Phenylpropylamino)tetrahydropyran-4-carbonyl]amino]ethyl]benzoic acid, hydrochloride] came in with an IC50 below 1000 nM.

In turn, `C[C@H](NC(=O)C1(N2CC[C@@H](Oc3cccc(C(F)(F)F)c3)C2)CCOCC1)c1ccc(C(=O)N(C)C)cc1` [Example 170, 4-[(1S)-1-[[4-[(3R)-3-[3-(Trifluoromethyl)phenoxy]pyrrolidin-1-yl]tetrahydropyran-4-carbonyl]dimethylamino]ethyl]benzamide, hydrochloride] had a 50% inhibitory concentration (IC50) below 100 nM.

Molecule `C[C@H](NC(=O)C1(c2ccc(OCCC3CCCCC3)nc2)CCOCC1)c1ccc(C(=O)O)cc1` [Example 122, 4-[(1S)-1-[[4-[6-(2-Cyclohexylethoxy)-3-pyridyl]tetrahydropyran-4-carbonyl]amino]ethyl]benzoic acid] showed an IC50 below 1000 nM.

Turning to `O=C(O)c1ccc(C2(NC(=O)C3(N4CC[C@@H](Oc5cccc(C(F)(F)F)c5)C4)CCOCC3)CC2)cc1` [Example 145, 4-[1-[[4-[(3R)-3-[3-(Trifluoromethyl)phenoxy]pyrrolidin-1-yl]tetrahydropyran-4-carbonyl]amino]cyclopropyl]benzoic acid, hydrochloride], the IC50 is below 100 nM.

As for `Cc1cccc(O[C@@H]2CCN(C3(C(=O)N[C@@H](C)c4ccc(C(=O)O)cc4)CCOCC3)C2)c1` [Example 150, 4-[(1S)-1-[[4-[(3R)-3-(3-Methylphenoxy)pyrrolidin-1-yl]tetrahydropyran-4-carbonyl]amino]ethyl]benzoic acid, hydrochloride], the half-maximal inhibitory concentration (IC50) was below 100 nM.

In turn, `C[C@H](NC(=O)C1(c2ccc(OCC3CCCCC3)cn2)CCOCC1)c1ccc(C(=O)O)cc1` [Example 119, 4-[(1S)-1-[[4-[5-(Cyclohexylmethoxy)-2-pyridyl]tetrahydropyran-4-carbonyl]amino]ethyl]benzoic acid] showed a 50% inhibitory concentration (IC50) below 1000 nM.

For the molecule `C[C@H](NC(=O)C1(N2CC[C@@H](Oc3cccc(C(F)(F)F)c3)C2)CCOCC1)c1cccc(Cl)c1` [Example 191, N—((S)-1-(3-Chlorophenyl)ethyl)-4-((R)-3-(3-(trifluoromethyl)phenoxy)pyrrolidin-1-yl)tetrahydro-2H-pyran-4-carboxamide, hydrochloride], the concentration for half-maximal inhibition (IC50) is below 1000 nM.

For `CN(CCOc1ccccc1C(F)(F)F)C1(C(=O)NC2(c3ccc(C(=O)O)cc3)CC2)CCOCC1` [Example 42, 4-[1-[[4-[2-(2-Trifluoromethylphenoxy)ethyl-methyl-amino]tetrahydropyran-4-carbonyl]amino]cyclopropyl]benzoic acid, hydrochloride], the half-inhibitory concentration (IC50) was below 1000 nM.

Molecule `C[C@H](NC(=O)C1(NCCOc2ccccc2)CC2(CCC2)C1)c1ccc(C(=O)O)cc1` [Example 68, 4-[(1S)-1-[[2-(2-Phenoxyethylamino)spiro[3.3]heptane-2-carbonyl]amino]ethyl]benzoic acid, hydrochloride] came in with an IC50 below 1000 nM.
